In patent EP2060268A1, “Pharmaceutical compositions for pulmonary or nasal delivery of peptides” (NOVO NORDISK A/S, priority 2007, dated 2009):
Ends that are not written are not given here.

Tests used:
[1] = treated test animals; e.g. provoking marked hyperlactemia followed by hyperglycemia; cited from earlier work
[2] = when compared to human amylin; cited from earlier work
[3] = Enhancement of peptide absorption in the lung by absorption enhancers (animal model); format: in vivo; conditions: tested as absorption enhancer, pulmonary route
[4] = Pharmacokinetics after intra-tracheal dry powder delivery to anaesthetised pigs; format: in vivo; conditions: pig, inhaled or intranasal, pramlintide/insulin aspart powder delivered intra-tracheally, plasma
Description: For pulmonary delivery the PennCentury™ DP-4 dry powder insufflator (Penn-Century Inc) modified for pigs was used in combination with the PennCentury™ adjustable air pump, model AP-1 (Penn-Century Inc). The powder is weighed into the sample chamber of the device and manually emitted from the device by using the AP-1 adjustable pump.
The pigs were fasted for approximately 18 h before the experiment. Anaesthesia was induced by injecting Domitor IV (1 mg/mL, 0.4 mL/pig), followed by slow IV infusion of Propofol (10 mg/ml) until the sufficient depth of anaesthesia was obtained, approximately 10-15 mL/pig in total. Atropin (1 mg/ml, 0.5 mL/pig) was injected i.m. to stabilize cardiac parameters and to decrease bronchial secretions. After anaesthesia (and) the pigs were intubated with an endotracheal tube size 8.0 mm. Via an L-piece and the endotraceal tube the pigs were connected to a respirator, with respiration frequency set to 10/min and tidal volume to 300 mL/breath to mimic deep inhalations in humans. […]
Insulin aspart was analyzed using an in-house LOCI sandwich immunoassay with two different antibodies. […] Pramlintide was analyzed using a commercially available human amylin ELISA kit modified for porcine samples (Linco Research, cat. no. EZHA-52K). […]

[5] = cited from earlier work

| Molecule | amylin activity in vivo [1] | enhancement of peptide absorption in the lung [3] | also measured |
| --- | --- | --- | --- |
| des-^1Lys-h-amylin (CNTATCATQRLANFLVHSSNNFGAILSSTNVGSNTY; ends and bridges not checked; cysteine pairing not given here; UniProt P10997 35-70, looked up, fragment) | show amylin activity in vivo | – | – |
| ^18Arg^25, 28Pro-h-amylin | show amylin activity in vivo | – | solubility and stability characteristics [2]: more desirable solubility and stability characteristics |
| ^25Pro^26Val^28, 29Pro-h-amylin | – | – | solubility and stability characteristics [2]: more desirable solubility and stability characteristics |
| C[C@H](CCC(=O)NCC(=O)O)[C@H]1CC[C@H]2[C@@H]3[C@H](O)C[C@@H]4C[C@H](O)CC[C@]4(C)[C@H]3C[C@H](O)[C@]12C [glycocholate] | – | effectively enhance peptide absorption in the lung | – |
| des-^1Lys^18Arg^25, 28Pro-h-amylin | show amylin activity in vivo | – | – |
| Dimethyl-β-cyclodextrin | – | absorption enhancing effect | – |
| C[C@H](CCC(=O)O)[C@H]1CC[C@H]2[C@@H]3[C@@H](O)C[C@@H]4C[C@H](O)CC[C@]4(C)[C@H]3CC[C@]12C [ursodeoxycholate] | – | effectively enhance peptide absorption in the lung | – |
| ^28Pro-h-amylin (KCNTATCATQRLANFLVHSSNNFGAILPSTNVGSNTY; ends and bridges not checked; cysteine pairing not given here; UniProt P10997 34-70, looked up, variant S28P) | show amylin activity in vivo | – | – |
| lysophospatidylcholine | – | effective enhancer | – |
| CC(=O)OC1CC2(C)C(CC(O)C3C4(C)CCC(O)C(C)C4CCC32C)C1=C(CCCC(C)C)C(=O)NCCS(=O)(=O)O (stereo not drawn) [taurodihydrofusidate] | – | effectively enhance peptide absorption in the lung | – |
| CC[C@H](C)[C@H](NC(=O)[C@@H]1CCCN1C(=O)CNC(=O)[C@H](Cc1ccccc1)NC(=O)[C@H](CC(N)=O)NC(=O)[C@H](CC(N)=O)NC(=O)[C@H](CO)NC(=O)[C@H](CO)NC(=O)[C@H](Cc1c[nH]cn1)NC(=O)[C@@H](NC(=O)[C@H](CC(C)C)NC(=O)[C@H](Cc1ccccc1)NC(=O)[C@H](CC(N)=O)NC(=O)[C@H](C)NC(=O)[C@H](CC(C)C)NC(=O)[C@H](CCCNC(=N)N)NC(=O)[C@H](CCC(N)=O)NC(=O)[C@@H](NC(=O)[C@H](C)NC(=O)[C@@H]1CSSC[C@H](NC(=O)[C@@H](N)CCCCN)C(=O)N[C@@H](CC(N)=O)C(=O)N[C@@H]([C@@H](C)O)C(=O)N[C@@H](C)C(=O)N[C@@H]([C@@H](C)O)C(=O)N1)[C@@H](C)O)C(C)C)C(=O)N[C@@H](CC(C)C)C(=O)N1CCC[C@H]1C(=O)N1CCC[C@H]1C(=O)N[C@H](C(=O)N[C@@H](CC(N)=O)C(=O)N[C@H](C(=O)NCC(=O)N[C@@H](CO)C(=O)N[C@@H](CC(N)=O)C(=O)N[C@H](C(=O)N[C@@H](Cc1ccc(O)cc1)C(N)=O)[C@@H](C)O)C(C)C)[C@@H](C)O [Symlin, ^25,28,29Pro-h-amylin] | – | – | Tmax [4]: 40 min; time to reach Cmax ([5]; after a subcutaneous injection): approximately 20 minutes; plasma t½ ([5]; subcutaneous injection): approximately 20 minutes; solubility and stability characteristics [2]: more desirable solubility and stability characteristics |
